From patent US20130060013A1, “Compounds useful for treating neurodegenerative disorders” (SATORI PHARMACEUTICALS, INC., priority 2011, published 2013) come the findings set out here.

What all share (assay type): cell-based
Conditions in all cases: Homo sapiens, compound 5 hours at 37° C., 1% DMSO, percent vehicle fit to 4 parameter curve

One assay concerns Aβ-38. Description: Aβ-38 level in conditioned media of 2B7 cells (MSD 3-PLEX ELISA). The protocol: (§1) Assays were conducted to determine the ability of a Compound of Formula I to modulate […], and Aβ-38.
(§2) Plates with capture antibodies were blocked for 1-2 hours at room temperature with 150 μL of the manufactures blocking reagent.
(§3) Cultured 2B7 cells in 96 well plate with 250 uL of media per well until confluent;
(§4) Prepared serial dilutions of compounds in DMSO at 100× the final desired concentration;
(§5) Washed wells with 2B7 cells 1× with 250 uL of media;
(§6) Diluted DMSO stocks 1:100 into media:
(§7) Added 250 μL of media containing compounds (1% DMSO) to wells with 2B7 cells for 5 hours at 37° C.
(§8) Diluted conditioned media: 1 part media with 1% DMSO and 1 part blocking buffer;
(§9) 150 μL of the 250 μL of conditioned media were used.
(§10) Standard Curve Sample Prep:
(§11) Prepared per manufacturer's protocol (see above)
(§12) Seven point standard curve samples were prepared that contained Aβ-42, Aβ-40, and Aβ-38. The highest concentration of Aβ-42 and Aβ-38 was 3,000 pg/mL and the highest concentration of Aβ-40 was 10,000 pg/mL. Subsequent serial dilutions were 1:3 and the final composition of each sample was 1 part blocking buffer and 1 part cell medium containing 1% DMSO.
(§13) Overnight Sample Incubation:
(§14) Blocked plates are washed 5× with MSD wash buffer with a plate washer
(§15) 25 uL of detection antibody and blocker G reagent in MSD blocking solution is added
(§16) 25 uL of samples (1 part conditioned media containing 1% DMSO and 1 part MSD blocking buffer) are then added.
(§17) plates are incubated overnight at 4 degrees C. or 2 hours at room temp
(§18) Wash wells 5× with MSD wash buffer
(§19) Added 150 μL 2×MSD read buffer
(§20) A-Beta peptide levels for each peptide are calculated from the standard curve using the MSD software provided with the MSD 2400 Imager. Percent vehicle values for each compound dosage were then calculated and fit to a 4 parameter curve generating IC50 values.
Background: ELISA stands for enzyme-linked immunosorbent assay.

The subject of another assay is Aβ-42. Briefly: Aβ-42 level in conditioned media of 2B7 cells (MSD 3-PLEX ELISA). The protocol: as §1, §2, §3, §4, §5, §6, §7, §8, §9, §10, §11, §12, §13, §14, §15, §16, §17, §18, §19, §20
A further assay relates to Aβ-40. Briefly: Aβ-40 level in conditioned media of 2B7 cells (MSD 3-PLEX ELISA). As to the method: as §1
Human (6E10) Ab 3-PLEX elisa kits were purchased from Meso Scale Discovery Labs, 9328 Gaither Road, Gaithersburg, Md. 20877 (Catalog Number K15148E-3). Plates with capture antibodies were blocked for 1-2 hours at room temperature with 150 μL of the manufactures blocking reagent.
as §3, §4, §5, §6, §7, §8, §9, §10, §11, §12, §13, §14, §15, §16, §17, §18, §19, §20

Bounds are passed on as bounds.

In the case of `CO[C@@H]([C@H]1C[C@@H](C)[C@H]2[C@H](O1)[C@H](O)[C@@]1(C)[C@@H]3CC[C@H]4C(C)(C)[C@@H](O[C@H]5CNCCO5)CCC45C[C@@]35CC[C@]21C)C(C)(C)OC` (stereo partly shown), the IC50 in the assay on Aβ-38 and in the assay with Aβ-42 was < 1000 nM each time.

Regarding `CCO[C@@H]([C@H]1C[C@@H](C)[C@H]2[C@H](O1)[C@H](O)[C@@]1(C)[C@@H]3CC[C@H]4C(C)(C)[C@@H](O[C@H]5CNCCO5)CCC45C[C@@]35CC[C@]21C)C(C)(C)OCC` (stereo partly shown), the IC50 in the assay with Aβ-38 and in the assay with Aβ-42 was 1000 to 10000 nM each time.

`CCO[C@@H]([C@H]1C[C@@H](C)[C@H]2[C@H](O1)[C@H](O)[C@@]1(C)[C@@H]3CC[C@H]4C(C)(C)[C@@H](O[C@H]5CN(Cc6cncs6)CCO5)CCC45C[C@@]35CC[C@]21C)C(C)(C)O` (stereo partly shown): the IC50 with Aβ-38 is 1000 to 10000 nM; with Aβ-42 it was < 1000 nM.

Consider `CCO[C@@H]([C@H]1C[C@@H](C)[C@H]2[C@H](O1)[C@H](O)[C@@]1(C)[C@@H]3CC[C@H]4C(C)(C)[C@@H](O[C@H]5CN(Cc6nccs6)CCO5)CCC45C[C@@]35CC[C@]21C)C(C)(C)O` (stereo partly shown), for which the concentration for half-maximal inhibition (IC50) with Aβ-38 is 1000 to 10000 nM; in the assay on Aβ-42, < 1000 nM.

For `CCO[C@@H]([C@H]1C[C@@H](C)[C@H]2[C@H](O1)[C@H](O)[C@@]1(C)[C@@H]3CC[C@H]4C(C)(C)[C@@H](O[C@H]5CN(Cc6cnn(C)c6)CCO5)CCC45C[C@@]35CC[C@]21C)C(C)(C)O` (stereo partly shown), the IC50 was 1000 to 10000 nM in the assay on Aβ-38 and < 1000 nM in the assay on Aβ-42.

Take `CNC1CN(C(=O)O[C@H]2CCC34C[C@]35CC[C@]3(C)[C@@H]6[C@H](O[C@@H]([C@H](OC)C(C)(C)O)C[C@H]6C)[C@H](O)[C@@]3(C)[C@@H]5CC[C@H]4C2(C)C)C1` (stereo partly shown): the IC50 in the assay on Aβ-38 is 1000 to 10000 nM; in the assay on Aβ-42, < 1000 nM.

For `COCCN1CCO[C@@H](O[C@H]2CCC34C[C@]35CC[C@]3(C)[C@@H]6[C@H](O[C@@H]([C@H](OC)C(C)(C)OC)C[C@H]6C)[C@H](O)[C@@]3(C)[C@@H]5CC[C@H]4C2(C)C)C1` (stereo partly shown), the figures for the IC50 in the assay with Aβ-38, with Aβ-40 and with Aβ-42 were 1000 to 10000 nM, > 10000 nM and < 1000 nM, respectively.

`CCO[C@@H]([C@H]1C[C@@H](C)[C@H]2[C@H](O1)[C@H](O)[C@@]1(C)[C@@H]3CC[C@H]4C(C)(C)[C@@H](O[C@H]5CN(CC(=O)NCCOC)CCO5)CCC45C[C@@]35CC[C@]21C)C(C)(C)O` (stereo partly shown): the IC50 with Aβ-38 is 1000 to 10000 nM; in the assay with Aβ-40, 1000 to 10000 nM; in the assay with Aβ-42 it was < 1000 nM.

As for `CO[C@@H]([C@H]1C[C@@H](C)[C@H]2[C@H](O1)[C@H](O)[C@@]1(C)[C@@H]3CC[C@H]4C(C)(C)[C@@H](O[C@H]5CN(CCN(C)C)CCO5)CCC45C[C@@]35CC[C@]21C)C(C)(C)OC` (stereo partly shown), the IC50 is < 1000 nM with Aβ-38, 1000 to 10000 nM with Aβ-40 and < 1000 nM in the assay on Aβ-42.

On to `CCO[C@@H]([C@H]1C[C@@H](C)[C@H]2[C@H](O1)[C@H](O)[C@@]1(C)[C@@H]3CC[C@H]4C(C)(C)[C@@H](O[C@H]5CN(c6cncc(F)c6)CCO5)CCC45C[C@@]35CC[C@]21C)C(C)(C)C` (stereo partly shown), for which the IC50 in the assay with Aβ-38 is 1000 to 10000 nM; in the assay on Aβ-40 it was > 10000 nM; in the assay on Aβ-42, 1000 to 10000 nM.

Take `CC(=O)O[C@H]([C@H]1C[C@@H](C)[C@H]2[C@@H](O1)[C@@H](O)[C@@]1(C)[C@@H]3CC[C@H]4C(C)(C)[C@@H](O)CCC45C[C@@]35CC[C@]21C)C(C)(C)O` (stereo partly shown): the IC50 with Aβ-40 and in the assay on Aβ-42 was 1000 to 10000 nM throughout.

For `CCO[C@@H]([C@H]1C[C@@H](C)[C@H]2[C@H](O1)[C@H](O)[C@@]1(C)[C@@H]3CC[C@H]4C(C)(C)C(O[C@H]5CN(CCN(CCCOCCOCCOCCCNC(=O)CCCCC6SC[C@@H]7NC(=O)N[C@H]67)CCNC(=O)CCC6(C)N=N6)CCO5)CC[C@@]45CC35CC[C@]21C)C(C)(C)O` (stereo partly shown), the values for the IC50 in the assay on Aβ-40 and in the assay on Aβ-42 were 1000 to 10000 nM and < 1000 nM, respectively.

A word on the IC50: it is the concentration that gives 50% inhibition.
